According to ChEMBL document CHEMBL1201862, “PubChem BioAssay data set” (2004):
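All cell lines were grown in 96-well plates and treated with compound for 48 hours. GI50 is the concentration that inhibits growth by half.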 Calls of active or inactive are those of the source. Rule as the data show it: active = GI50 up to about 1.1 µM and inactive = higher.

What was measured:
Assay in all cases: inhibition of tumour cell growth, NCI panel, 48 h
786-0 = system: 786-0
A549 = system: A549
BT-549 = system: BT-549
CAKI-1 = system: CAKI-1
DU-145 = system: DU-145
HCC 2998 = system: HCC 2998
HT-29 = system: HT-29
K562 = system: K562
MOLT-4 = system: MOLT-4
NCI-H522 = system: NCI-H522
OVCAR-5 = system: OVCAR-5
SK-MEL-28 = system: SK-MEL-28
SW-620 = system: SW-620
UACC-257 = system: UACC-257
UACC-62 = system: UACC-62
UO-31 = system: UO-31
MDA-MB-231 = system: MDA-MB-231
PC-3 = system: PC-3
RPMI-8226 = system: RPMI-8226
SK-OV-3 = system: SK-OV-3

Measured: GI50

COc1c(CC=C(C)C)c(O)c(C(CC(C)C)c2c(O)c(C(C)=O)c(O)c3c2OC(C(C)(C)O)C3)c(O)c1C(C)=O (configuration not stated) [ACROFOLIONE A]
inactive: 786-0 4.89 µM | A549 7.96 µM | BT-549 3.27 µM | CAKI-1 3.59 µM | DU-145 4.71 µM | HCC 2998 4.46 µM | HT-29 4.71 µM | K562 2.13 µM | MOLT-4 3.4 µM | NCI-H522 3.39 µM | OVCAR-5 5.38 µM | SK-MEL-28 9.18 µM | SW-620 6.25 µM | UACC-257 3.2 µM | UACC-62 5.26 µM | UO-31 4.16 µM

CCCCCCNCCc1c[nH]cn1
inactive: 786-0 > 100 µM | A549 > 100 µM | CAKI-1 > 100 µM | DU-145 > 100 µM | HCC 2998 > 100 µM | HT-29 > 100 µM | K562 > 100 µM | MDA-MB-231 > 100 µM | MOLT-4 > 100 µM | NCI-H522 > 100 µM | OVCAR-5 > 100 µM | PC-3 > 100 µM | RPMI-8226 > 100 µM | SK-MEL-28 > 100 µM | SK-OV-3 > 100 µM | SW-620 > 100 µM | UACC-257 > 100 µM | UACC-62 > 100 µM | UO-31 > 100 µM

CC(=O)Nc1ccccc1NC1CC(C)N(c2ccccc2)N1C(C)=O (configuration not stated)
inactive: 786-0 > 10 µM | A549 > 10 µM | CAKI-1 > 10 µM | DU-145 > 10 µM | HCC 2998 > 10 µM | HT-29 > 10 µM | K562 > 10 µM | MDA-MB-231 > 10 µM | MOLT-4 > 10 µM | PC-3 > 10 µM | RPMI-8226 > 10 µM | SK-MEL-28 > 10 µM | SK-OV-3 > 10 µM | SW-620 > 10 µM | UACC-257 > 10 µM | UACC-62 > 10 µM

COc1cc(C2c3cccc4cccc(c34)C3CCC(=O)N32)cc(O)c1O (configuration not stated)
inactive: 786-0 44.2 µM | A549 31.2 µM | BT-549 > 50 µM | DU-145 > 50 µM | HT-29 48.1 µM | K562 10.8 µM | MOLT-4 12.7 µM | OVCAR-5 > 50 µM | PC-3 34.4 µM | RPMI-8226 11.5 µM | SK-MEL-28 33.5 µM | SK-OV-3 > 50 µM | SW-620 28.6 µM | UACC-257 24.7 µM | UACC-62 25.6 µM | UO-31 28.8 µM

CC(=O)N(C)c1cc(NCc2ccccc2)ccc1OCc1ccccc1
inactive: 786-0 27.9 µM | A549 18.3 µM | BT-549 20.6 µM | CAKI-1 17.7 µM | DU-145 17.1 µM | HCC 2998 18.8 µM | HT-29 20.6 µM | K562 22.1 µM | MDA-MB-231 15.8 µM | MOLT-4 25.8 µM | NCI-H522 17.9 µM | OVCAR-5 19.3 µM | SK-MEL-28 18.9 µM | SK-OV-3 21.7 µM | SW-620 24.9 µM | UACC-257 17.3 µM | UACC-62 16.4 µM | UO-31 14.8 µM

C(=N\CCCN1CCN(CCC/N=C/c2cccc3ccccc23)CC1)/c1cccc2ccccc12
inactive: 786-0 > 100 µM | A549 > 100 µM | BT-549 22.8 µM | CAKI-1 > 100 µM | HCC 2998 > 100 µM | HT-29 45.3 µM | K562 26.4 µM | MDA-MB-231 > 100 µM | MOLT-4 39.4 µM | NCI-H522 > 100 µM | OVCAR-5 > 100 µM | PC-3 > 100 µM | RPMI-8226 36 µM | SK-MEL-28 56.4 µM | SK-OV-3 > 100 µM | SW-620 64.9 µM | UACC-257 > 100 µM | UACC-62 84.7 µM | UO-31 48.3 µM

Cc1ccc(N(C(=O)Nc2ccccc2)C2=NCC(C)S2)cc1C (configuration not stated)
inactive: 786-0 20.4 µM | A549 29 µM | CAKI-1 > 10 µM | DU-145 31.4 µM | HCC 2998 > 10 µM | HT-29 18.2 µM | K562 42.7 µM | MDA-MB-231 18.7 µM | MOLT-4 > 10 µM | OVCAR-5 23.1 µM | PC-3 24.4 µM | RPMI-8226 20 µM | SK-MEL-28 17.5 µM | SK-OV-3 39.6 µM | SW-620 24.7 µM | UACC-257 > 10 µM | UO-31 18.5 µM

COC(=O)CNC(=O)CSc1nnc(COc2ccc(Cl)cc2)n1-c1ccccc1
inactive: 786-0 16.1 µM | A549 > 100 µM | CAKI-1 16.9 µM | DU-145 16.3 µM | HCC 2998 25.3 µM | HT-29 40.6 µM | K562 > 100 µM | MDA-MB-231 20.5 µM | MOLT-4 64.1 µM | NCI-H522 15.3 µM | OVCAR-5 56.1 µM | PC-3 24 µM | SK-MEL-28 26.6 µM | SK-OV-3 > 100 µM | SW-620 43.6 µM | UACC-257 29.9 µM | UACC-62 39.5 µM | UO-31 27.4 µM

O=C1CSC(=S)N1 [RHODANINE]
inactive: 786-0 > 100 µM | A549 > 100 µM | CAKI-1 > 100 µM | DU-145 > 100 µM | HCC 2998 > 100 µM | K562 > 100 µM | MDA-MB-231 > 100 µM | MOLT-4 > 100 µM | NCI-H522 > 100 µM | OVCAR-5 > 100 µM | PC-3 > 100 µM | RPMI-8226 > 100 µM | SK-MEL-28 > 100 µM | SW-620 > 100 µM | UACC-257 > 100 µM | UO-31 > 100 µM

CCc1c(CN)c(CC)c(CNC2=NCCN2)c(CC)c1CNC1=NCCN1
inactive: 786-0 > 100 µM | A549 > 100 µM | BT-549 > 100 µM | CAKI-1 > 100 µM | DU-145 > 100 µM | HCC 2998 > 100 µM | HT-29 > 100 µM | K562 > 100 µM | MOLT-4 > 100 µM | NCI-H522 > 100 µM | OVCAR-5 > 100 µM | PC-3 > 100 µM | RPMI-8226 > 100 µM | SK-MEL-28 > 100 µM | SK-OV-3 > 100 µM | SW-620 > 100 µM | UACC-257 > 100 µM | UACC-62 > 100 µM | UO-31 > 100 µM

NC(=O)Cc1ncn(-c2ccccc2)n1
inactive: 786-0 > 100 µM | A549 > 100 µM | BT-549 > 100 µM | CAKI-1 > 100 µM | DU-145 > 100 µM | HT-29 > 100 µM | K562 > 100 µM | MDA-MB-231 > 100 µM | MOLT-4 > 100 µM | NCI-H522 > 100 µM | OVCAR-5 > 100 µM | RPMI-8226 > 100 µM | SK-OV-3 > 100 µM | SW-620 > 100 µM | UACC-257 > 100 µM | UACC-62 > 100 µM | UO-31 > 100 µM

C[N+](C)=c1[nH]c2ccccc2[nH]1
inactive: 786-0 > 100 µM | A549 > 100 µM | CAKI-1 > 100 µM | HCC 2998 > 100 µM | HT-29 > 100 µM | K562 > 100 µM | MOLT-4 > 100 µM | NCI-H522 > 100 µM | OVCAR-5 > 100 µM | RPMI-8226 > 100 µM | SK-MEL-28 > 100 µM | SK-OV-3 > 100 µM | SW-620 > 100 µM | UACC-257 > 100 µM | UACC-62 > 100 µM | UO-31 > 100 µM
